Laboratory results reported in patent US20210145000A1, “WEED CONTROL FROM APPLICATIONS OF PYRIDINE CARBOXYLIC ACID HERBICIDES AND ACETYL CoA CARBOXYLASE (ACCase) INHIBITORS” (Dow AgroSciences LLC, priority 2018, published 2021).

Key:
Test in all cases: Postemergence herbicidal activity, greenhouse, visual injury
Assay type in all cases: in vivo
[1] = tested on: barnyardgrass (Echinochloa crus-galli, ECHCG); conditions: post-emergence, read-out: Effect (% visual injury) Obs
Procedure: (§1) The plants were grown for 7-36 days (d) in a greenhouse with an approximate 14-hour (h) photoperiod which was maintained at about 23° C. during the day and 22° C. during the night. Nutrients and water were added on a regular basis and supplemental lighting was provided with overhead metal halide 1000-Watt lamps as necessary. The plants were employed for testing when they reached the second or third true leaf stage.
(§2) Spray solutions of the experimental compound mixtures were prepared by adding the stock solutions to the appropriate amount of dilution solution to form a 12 mL spray solution in two-way combinations. […] Control plants were sprayed in the same manner with the solvent blank. Application rates for component (a) are in g ae/ha, and application rates for component (b) are in g ai/ha.
(§3) The treated plants and control plants were placed in a greenhouse as described above and watered by sub-irrigation to prevent wash-off of the test compounds. After 20-22 d, the condition of the test plants as compared with that of the control plants was determined visually and scored on a scale of 0 to 100 percent where 0 corresponds to no injury and 100 corresponds to complete kill. […] The Colby method was used to determine the herbicidal effects expected from the mixtures.

[2] = tested on: blackgrass (Alopecurus myosuroides, ALOMY); conditions: post-emergence, read-out: Effect (% visual injury) Obs
Procedure: as §1, §2, §3

[3] = tested on: common lambsquarters (Chenopodium album L., CHEAL); conditions: post-emergence, read-out: Effect (% visual injury) Obs
Procedure: as §1, §2, §3

[4] = tested on: giant foxtail (Setaria faberi, SETFA); conditions: post-emergence, read-out: Effect (% visual injury) Obs
Procedure: as §1, §2, §3

[5] = tested on: large crabgrass (Digitaria sanguinalis, DIGSA); conditions: post-emergence, read-out: Effect (% visual injury) Obs
Procedure: as §1, §2, §3

maize (Zea mays, ZEAMX) = conditions: post-emergence, read-out: Effect (% visual injury) Obs
Procedure: as §1, §2, §3

[6] = tested on: pigweed (Amaranthus retroflexus, AMARE); conditions: post-emergence, read-out: Effect (% visual injury) Obs
Procedure: as §1, §2, §3

[7] = tested on: rice (Oryza sativa, ORYSA); conditions: post-emergence, read-out: Effect (% visual injury) Obs
Procedure: as §1, §2, §3

[8] = tested on: soybean (Glycine max, GLXMA); conditions: post-emergence, read-out: Effect (% visual injury) Obs
Procedure: as §1, §2, §3

[9] = tested on: sunflower (Helianthus annuus, HELAN); conditions: post-emergence, read-out: Effect (% visual injury) Obs
Procedure: as §1, §2, §3

[10] = tested on: velvetleaf (Abutilon theophrasti, ABUTH); conditions: post-emergence, read-out: Effect (% visual injury) Obs
Procedure: as §1, §2, §3

[11] = tested on: wild buckwheat (Polygonum convolvulus, POLCO); conditions: Fallopia convolvulus, post-emergence, read-out: Effect (% visual injury) Obs
Procedure: as §1, §2, §3

[12] = tested on: wild oat (Avena fatua, AVEFA); conditions: post-emergence, read-out: Effect (% visual injury) Obs
Procedure: as §1, §2, §3

[13] = tested on: wild pansy (Viola tricolor, VIOTR); conditions: post-emergence, read-out: Effect (% visual injury) Obs
Procedure: as §1, §2, §3

[14] = tested on: winter wheat (Triticum aestivum, TRZAW); conditions: post-emergence, read-out: Effect (% visual injury) Obs
Procedure: as §1, §2, §3

[15] = tested on: chickweed (Stellaria media, STEME); conditions: post-emergence, read-out: Effect (% visual injury) Obs
Procedure: (§4) Seeds of the desired test plant species were planted in Sun Gro MetroMix® 306 planting mixture, which typically has a pH of 6.0 to 6.8 and an organic matter content of about 30 percent, in plastic pots with a surface area of 103.2 square centimeters (cm^2). When required to ensure good germination and healthy plants, a fungicide treatment and/or other chemical or physical treatment was applied. The plants were grown for 7-36 days (d) in a greenhouse with an approximate 14-hour (h) photoperiod which was maintained at about 23° C. during the day and 22° C. during the night. Nutrients and water were added on a regular basis and supplemental lighting was provided with overhead metal halide 1000-Watt lamps as necessary. The plants were employed for testing when they reached the second or third true leaf stage.
(§5) An emulsifiable concentrate (EC) formulation containing Compound 1 at 100 gai/L was prepared by combining Compound 1 with 1-butyl-2-pyrrolidinone (Tamisolve NxG; 360.5 g/L), benzyl acetate (544.6 g/L) and Agnique MBL 520L surfactant (52.9 g/L). […] The concentrated stock solution was diluted with an aqueous mixture of 1.5% v/v of Agri-dex crop oil concentrate to provide the appropriate application rates. Compound requirements are based upon a 12 milliliter (mL) application volume at a rate of 187 liters per hectare (L/ha). Spray solutions of the experimental compound mixtures were prepared by adding the stock solutions to the appropriate amount of dilution solution to form a 12 mL spray solution in two-way combinations. Formulated compounds were applied to the plant material with an overhead Mandel track sprayer equipped with 8002E nozzles calibrated to deliver 187 L/ha over an application area of 0.503 square meters (m^2) at a spray height of 18 inches (43 centimeters (cm)) above average plant canopy. Control plants were sprayed in the same manner with the solvent blank. Application rates for component (a) are in g ae/ha, and application rates for component (b) are in g ai/ha.
as §3

[16] = tested on: kochia (Kochia scoparia, KCHSC); conditions: Clethodim 70 g ai/ha
Procedure: as §4, §5, §3

[17] = tested on: poinsettia (Euphorbia heterophylla, EPHHL); conditions: Clethodim 70 g ai/ha
Procedure: as §4, §5, §3

[18] = tested on: winter rape (Brassica napus, BRSNW); conditions: post-emergence, read-out: Effect (% visual injury) Obs
Procedure: as §4, §5, §3

[19] = tested on: grain sorghum (Sorghum vulgare, SORVU); conditions: post-emergence, read-out: Effect (% visual injury) Obs
Procedure: as §1, §2, §3

In the case of `CCSC(C)CC1CC(=O)C(C(CC)=NOC/C=C/Cl)=C(O)C1` (stereo not shown) [Clethodim], the pest or weed control at 70 g/ha [1] is reported as 100%, the pest or weed control at 70 g/ha [2] is reported as 93% and the pest or weed control at 70 g/ha [3] is reported as 5%. For the same molecule, the pest or weed control at 70 g/ha [4] was 85%, the pest or weed control at 70 g/ha [5] was 70% and the plant injury at 70 g/ha (maize (Zea mays, ZEAMX)) was 100%. The pest or weed control at 70 g/ha [6] was 5%, the plant injury at 70 g/ha [7] was 90% and the plant injury at 70 g/ha [8] was 10%. The plant injury at 70 g/ha [9] was 0%, the pest or weed control at 70 g/ha [10] was 0% and the pest or weed control at 70 g/ha [11] was 10%. It also gave a pest or weed control at 70 g/ha [12] of 97%, a pest or weed control at 70 g/ha [13] of 5% and a plant injury at 70 g/ha [14] of 70%. The pest or weed control at 70 g/ha [15] was 10%, the “Effect (% visual injury) Obs” value [16] was 0% and the “Effect (% visual injury) Obs” value [17] was 30%. For the same molecule, the plant injury at 70 g/ha [18] was 5%.

In the case of `CCCCOC(=O)[C@@H](C)Oc1ccc(Oc2ccc(C#N)cc2F)cc1` [Cyhalofop-butyl], the pest or weed control at 180 g/ha [1] is reported as 100%, the pest or weed control at 180 g/ha [4] is reported as 90% and the plant injury at 180 g/ha [19] is reported as 95%. The pest or weed control at 180 g/ha [5] was 85%, the plant injury at 180 g/ha (maize (Zea mays, ZEAMX)) was 95% and the pest or weed control at 180 g/ha [6] was 0%. The plant injury at 180 g/ha [7] was 0%, the plant injury at 180 g/ha [9] was 0% and the pest or weed control at 180 g/ha [10] was 0%. For the same molecule, the pest or weed control at 180 g/ha [11] was 0%, the pest or weed control at 180 g/ha [12] was 90% and the pest or weed control at 180 g/ha [13] was 0%. It also gave a plant injury at 180 g/ha [14] of 0% and a plant injury at 180 g/ha [18] of 0%.

Work on `COC(=O)C(C)Oc1ccc(Oc2ccc(Cl)cc2Cl)cc1` (stereo not shown) [Diclofop-methyl] yielded a pest or weed control at 280 g/ha [1] of 100%, a pest or weed control at 280 g/ha [3] of 0% and a pest or weed control at 280 g/ha [4] of 60%. It also gave a pest or weed control at 280 g/ha [6] of 0%, a plant injury at 280 g/ha [7] of 40% and a plant injury at 280 g/ha [9] of 0%. The pest or weed control at 280 g/ha [10] was 0%, the pest or weed control at 280 g/ha [11] was 0% and the pest or weed control at 280 g/ha [13] was 0%. The plant injury at 280 g/ha [14] was 0%, the pest or weed control at 280 g/ha [15] was 0% and the plant injury at 280 g/ha [18] was 0%.

`CCOC(=O)[C@@H](C)Oc1ccc(Oc2nc3ccc(Cl)cc3o2)cc1` [Fenoxaprop-P-ethyl] was tested, and the pest or weed control at 46 g/ha ([1]; Fenoxaprop-P-ethyl 46 g ai/ha) was 100%, the pest or weed control at 46 g/ha ([2]; Fenoxaprop-P-ethyl 46 g ai/ha) was 0% and the pest or weed control at 46 g/ha ([3]; Fenoxaprop-P-ethyl 46 g ai/ha) was 0%. The pest or weed control at 46 g/ha ([4]; Fenoxaprop-P-ethyl 46 g ai/ha) was 100%, the pest or weed control at 46 g/ha ([5]; Fenoxaprop-P-ethyl 46 g ai/ha) was 100% and the plant injury at 46 g/ha (maize (Zea mays, ZEAMX); Fenoxaprop-P-ethyl 46 g ai/ha) was 100%. For the same molecule, the plant injury at 46 g/ha ([9]; Fenoxaprop-P-ethyl 46 g ai/ha) was 0%, the pest or weed control at 46 g/ha ([10]; Fenoxaprop-P-ethyl 46 g ai/ha) was 0% and the pest or weed control at 46 g/ha ([11]; Fenoxaprop-P-ethyl 46 g ai/ha) was 0%. It also gave a pest or weed control at 46 g/ha ([12]; Fenoxaprop-P-ethyl 46 g ai/ha) of 95%, a pest or weed control at 46 g/ha ([13]; Fenoxaprop-P-ethyl 46 g ai/ha) of 0% and a plant injury at 46 g/ha ([14]; Fenoxaprop-P-ethyl 46 g ai/ha) of 0%. The plant injury at 46 g/ha ([18]; Fenoxaprop-P-ethyl 46 g ai/ha) was 0%.
